Source: patent US20220041681A1 (MEDIMMUNE LIMITED, priority 2016, published 2022)

Tested on: Healthy volunteer
Experiment: Phase 1 single-ascending dose study
Settings: for Median glucose peak after breakfast: 1 hour post breakfast, 3.5 hours post dose; for Median glucose peak after dinner: 1 hour post dinner, […] post dose; for Median glucose peak after lunch: 1 hour post lunch, 7 hours post dose; for Overall daily food intake compared with placebo: across breakfast, lunch and dinner
[1] = Total G933, N = 36, subjects n (%)

CCCCCCCCCCCCCCCC(=O)N[C@@H](CCC(=O)NCCCC[C@H](NC(=O)[C@H](CC(=O)O)NC(=O)[C@H](CO)NC(=O)C(NC(=O)[C@H](Cc1ccccc1)NC(=O)C(NC(=O)CNC(=O)[C@H](CCC(N)=O)NC(=O)[C@H](CO)NC(=O)[C@@H](N)Cc1cnc[nH]1)[C@@H](C)O)[C@@H](C)O)C(=O)N[C@@H](CO)C(=O)N[C@@H](CCC(=O)O)C(=O)N[C@@H](Cc1ccc(O)cc1)C(=O)N[C@@H](CC(C)C)C(=O)N[C@@H](CC(=O)O)C(=O)N[C@@H](CO)C(=O)N[C@@H](CCC(=O)O)C(=O)N[C@@H](CCCNC(=N)N)C(=O)N[C@@H](C)C(=O)N[C@@H](CCCNC(=N)N)C(=O)N[C@@H](CC(=O)O)C(=O)N[C@@H](Cc1ccccc1)C(=O)N[C@H](C(=O)N[C@@H](C)C(=O)N[C@@H](Cc1c[nH]c2ccccc12)C(=O)N[C@@H](CC(C)C)C(=O)N[C@@H](CCC(=O)O)C(=O)N[C@@H](C)C(=O)NCC(=O)NCC(=O)O)C(C)C)C(=O)O (some centres unmarked) [Peptide G933]
TEAE: Gastrointestinal Disorders (150 μg, N = 6, subjects n (%)): 5 (83.3%)
TEAE: Headache (150 μg, N = 6, subjects n (%)): 1 (16.7%)
TEAE: Immune System Disorders (150 μg, N = 6, subjects n (%)): 0
TEAE: Injury associated with device (150 μg, N = 6, subjects n (%)): 0
TEAE: Injury poisoning and procedural complications (150 μg, N = 6, subjects n (%)): 0
TEAE: Metabolism and nutrition disorders (150 μg, N = 6, subjects n (%)): 2 (33.3%)
TEAE: Musculoskeletal and connective tissue disorders (150 μg, N = 6, subjects n (%)): 0
TEAE: Musculoskeletal chest pain (150 μg, N = 6, subjects n (%)): 0
TEAE: Nasopharyngitis (150 μg, N = 6, subjects n (%)): 0
TEAE: Nausea (150 μg, N = 6, subjects n (%)): 4 (66.7%)
TEAE: Nervous system disorders (150 μg, N = 6, subjects n (%)): 1 (16.7%)
TEAE: Oropharyngeal pain (150 μg, N = 6, subjects n (%)): 1 (16.7%)
TEAE: Procedural dizziness (150 μg, N = 6, subjects n (%)): 0
TEAE: Respiratory, thoracic and mediastinal disorders (150 μg, N = 6, subjects n (%)): 1 (16.7%)
TEAE: Seasonal allergy (150 μg, N = 6, subjects n (%)): 0
TEAE: Subjects with at least one event (150 μg, N = 6, subjects n (%)): 5 (83.3%)
TEAE: Ventricular extrasystoles (150 μg, N = 6, subjects n (%)): 0
TEAE: Vomiting (150 μg, N = 6, subjects n (%)): 4 (66.7%)
vomiting episodes (300 μg dose, 5 subjects): Thirty
tolerability (300 μg single SC dose): not tolerated
TEAE: Abdominal distension (300 μg, N = 6, subjects n (%)): 0
TEAE: Abdominal pain (300 μg, N = 6, subjects n (%)): 0
TEAE: Application site erosion (300 μg, N = 6, subjects n (%)): 0
TEAE: Arrhythmia (300 μg, N = 6, subjects n (%)): 0
TEAE: Atrioventricular block second degree (300 μg, N = 6, subjects n (%)): 0
TEAE: Cardiac Disorders (300 μg, N = 6, subjects n (%)): 1 (16.7%)
TEAE: Decreased appetite (300 μg, N = 6, subjects n (%)): 0
TEAE: Diarrhea (300 μg, N = 6, subjects n (%)): 0
TEAE: Dizziness (300 μg, N = 6, subjects n (%)): 1 (16.7%)
TEAE: Gastrointestinal Disorders (300 μg, N = 6, subjects n (%)): 5 (83.3%)
TEAE: Headache (300 μg, N = 6, subjects n (%)): 0
TEAE: Immune System Disorders (300 μg, N = 6, subjects n (%)): 0
TEAE: Injury associated with device (300 μg, N = 6, subjects n (%)): 1 (16.7%)
TEAE: Injury poisoning and procedural complications (300 μg, N = 6, subjects n (%)): 0
TEAE: Metabolism and nutrition disorders (300 μg, N = 6, subjects n (%)): 0
TEAE: Musculoskeletal and connective tissue disorders (300 μg, N = 6, subjects n (%)): 0
TEAE: Musculoskeletal chest pain (300 μg, N = 6, subjects n (%)): 0
TEAE: Nasopharyngitis (300 μg, N = 6, subjects n (%)): 0
TEAE: Nausea (300 μg, N = 6, subjects n (%)): 3 (50.0%)
TEAE: Oropharyngeal pain (300 μg, N = 6, subjects n (%)): 0
TEAE: Procedural dizziness (300 μg, N = 6, subjects n (%)): 0
TEAE: Respiratory, thoracic and mediastinal disorders (300 μg, N = 6, subjects n (%)): 0
TEAE: Seasonal allergy (300 μg, N = 6, subjects n (%)): 0
TEAE: Subjects with at least one event (300 μg, N = 6, subjects n (%)): 5 (83.3%)
TEAE: Ventricular extrasystoles (300 μg, N = 6, subjects n (%)): 1 (16.7%)
TEAE: Vomiting (300 μg, N = 6, subjects n (%)): 5 (83.3%)
TEAE: Abdominal distension [1]: 2 (5.6%)
TEAE: Abdominal pain [1]: 1 (2.8%)
TEAE: Application site erosion [1]: 1 (2.8%)
TEAE: Arrhythmia [1]: 1 (2.8%)
TEAE: Atrioventricular block second degree [1]: 1 (2.8%)
TEAE: Cardiac Disorders [1]: 3 (8.3%)
TEAE: Decreased appetite [1]: 2 (5.6%)
TEAE: Diarrhea [1]: 1 (2.8%)
TEAE: Dizziness [1]: 5 (13.9%)
TEAE: Gastrointestinal Disorders [1]: 12 (33.3%)
TEAE: Headache [1]: 4 (11.1%)
TEAE: Immune System Disorders [1]: 1 (2.8%)
TEAE: Injury associated with device [1]: 1 (2.8%)
TEAE: Injury poisoning and procedural complications [1]: 1 (2.8%)
TEAE: Metabolism and nutrition disorders [1]: 2 (5.6%)
TEAE: Musculoskeletal and connective tissue disorders [1]: 1 (2.8%)
TEAE: Musculoskeletal chest pain [1]: 1 (2.8%)
TEAE: Nasopharyngitis [1]: 1 (2.8%)
TEAE: Nausea [1]: 8 (22.2%)
TEAE: Oropharyngeal pain [1]: 1 (2.8%)
TEAE: Procedural dizziness [1]: 1 (2.8%)
TEAE: Respiratory, thoracic and mediastinal disorders [1]: 1 (2.8%)
TEAE: Seasonal allergy [1]: 1 (2.8%)
TEAE: Subjects with at least one event [1]: 21 (58.3%)
TEAE: Ventricular extrasystoles [1]: 1 (2.8%)
TEAE: Vomiting [1]: 10 (27.8%)
severity of treatment-emergent adverse events (all doses): Grade 1 (mild) or Grade 2 (moderate)
overall daily food intake (all doses compared with placebo, in words): reduction in overall daily food intake
plasma glucose levels (all doses, around meal times, in words): glucose lowering effect
ADA positive subjects (baseline or post-baseline): No subjects were ADA positive
tolerability with respect to nausea, vomiting, tachycardia and blood pressure (doses up to 150 μg): acceptable
geometric mean t1/2 (single SC dose): 10 to 12 h
Median diastolic BP maximum post dose change (single dose 5 μg): 13 mm Hg
Number of subjects with vomiting (single dose 5 μg): 0(0)
vomiting episodes (single dose 5 μg): 0(0)
Median glucose peak after breakfast (single dose 5 μg): 6.2 mmol/L
Median glucose peak after dinner (single dose 5 μg): 7.0 mmol/L
Median glucose peak after lunch (single dose 5 μg): 4.9 mmol/L
Overall daily food intake compared with placebo (single dose 5 μg): 100%
Median diastolic BP maximum post dose change (single dose 10 μg): 8 mm Hg
Number of subjects with vomiting (single dose 10 μg): 0(0)
vomiting episodes (single dose 10 μg): 0(0)
Median glucose peak after breakfast (single dose 10 μg): 5.8 mmol/L
Median glucose peak after dinner (single dose 10 μg): 6.0 mmol/L
Median glucose peak after lunch (single dose 10 μg): 5.1 mmol/L
Overall daily food intake compared with placebo (single dose 10 μg): 100%
Number of subjects with vomiting (single dose 30 μg): 0(0)
vomiting episodes (single dose 30 μg): 0(0)
Median glucose peak after breakfast (single dose 30 μg): 5.4 mmol/L
Median glucose peak after dinner (single dose 30 μg): 5.2 mmol/L
Median glucose peak after lunch (single dose 30 μg): 4.4 mmol/L
Overall daily food intake compared with placebo (single dose 30 μg): 96%
Median diastolic BP maximum post dose change (single dose 100 μg): 16 mm Hg
Number of subjects with vomiting (single dose 100 μg): 1(1)
vomiting episodes (single dose 100 μg): 1(1)
Median glucose peak after breakfast (single dose 100 μg): 5.5 mmol/L
Median glucose peak after dinner (single dose 100 μg): 5.2 mmol/L
Median glucose peak after lunch (single dose 100 μg): 4.7 mmol/L
Overall daily food intake compared with placebo (single dose 100 μg): 82%
Median diastolic BP maximum post dose change (single dose 150 μg): 15 mm Hg
Number of subjects with vomiting (single dose 150 μg): 4
vomiting episodes (single dose 150 μg): 9
Median glucose peak after breakfast (single dose 150 μg): 5.1 mmol/L
Median glucose peak after dinner (single dose 150 μg): 5.2 mmol/L
Median glucose peak after lunch (single dose 150 μg): 5.1 mmol/L
Overall daily food intake compared with placebo (single dose 150 μg): 60%
Median diastolic BP maximum post dose change (single dose 300 μg): 19 mm Hg
Number of subjects with vomiting (single dose 300 μg): 5
vomiting episodes (single dose 300 μg): 30
Median glucose peak after breakfast (single dose 300 μg): 4.7 mmol/L
Median glucose peak after dinner (single dose 300 μg): 4.9 mmol/L
Median glucose peak after lunch (single dose 300 μg): 5.1 mmol/L
Overall daily food intake compared with placebo (single dose 300 μg): 23%
